Assay results as given in patent publication US12383619B2, “Use of glutamate modulating agents with immunotherapies to treat cancer” (Biohaven Therapeutics Ltd., priority 2016, dated 2025).
Read-outs that look alike come from different tables or passages of the source.

Experiments:
advanced NSCLC = conditions: cited from earlier work; for OS: Hazard ratio / PFS: Hazard ratio: pembrolizumab compared to docetaxel
GL261 cells = experiment: Orthotopic GL261 glioma model, survival of mice; format: in vivo, C57BL/6J mice
Protocol: In this Example, the effects of the combination of a glutamate modulator, BHV-4157, in combination with an immunotherapeutic agent, anti-PD-1, were compared to either alone in a glioma model substantially as decribed in Zeng, J., et al., Int J Radiat Oncol Biol Phys., 2013 Jun. 1; 86(2):343-349, portions of which are reproduced below.
GL261-Luc cells are grown in Dulbecco's Modified Eagle Medium (DMEM)+10% fetal bovineserum+1% penicillinstreptomycin at 37° C. in a humidified incubator maintained at 5% CO2 and 5% O2 (Gibco).
Female C57BL/6J mice (Harlan), 4 to 6 weeks old or 6 to 8 weeks old, are used for orthotopic glioma experiments as described in Sonabend A M, Velicu S, Ulasov IV, et al. A safety and efficacy study of local delivery of interleukin 12 transgene by PPC polymer in a model of experimental glioma. Anticancer Drugs. 2008;19:133-142. To establish syngeneic gliomas, 130,000 GL261-Luc cells are stereotactically injected in a 1 μl volume into the left striatum over 1 minute into the following coordinates: 1 mm anterior, 1 mm lateral from bregma, and 3 mm deep from the cortical surface. Tumor burden is monitored by luciferase imaging on days 7, 21 and 35 after implantation, and the mice are randomly allocated into treatment arms based on tumor radiance, so that the average tumor radiance in each group is roughly equivalent. The animals are euthanized when they show predetermined signs of neurologic deficits (failure to ambulate, weight loss >20% body mass, lethargy, hunched posture). […] Each arm has 6 to 10 mice in survival experiments. All experiments are repeated at least in triplicate.
Hamster antimurine PD-1 monoclonal antibody producing hybridoma G4 are used to produce antibodies as described in Hirano F, Kaneko K, Tamura H, et al. Blockade of B7-H1 and PD-1 by monoclonal antibodies potentiates cancer therapeutic immunity. Cancer Res. 2005;65:1089-1096.
Female C57BL/6J mice, 4 to 6 weeks old, were implanted intrancranially in the left striatum with 130,000 GL261 cells each. The mice were housed and maintained according to the institutional Animal Care and Use Committee protocol in the Johns Hopkins University Animal Facility. The mice were imaged by bioluminescent IVIS® imaging (Perkin Elmer) at day 7, 21, and 35 to assess tumor burden and randomly assigned to groups, 10 mice per arm, as follows: • 1. Control • 2. anti-PD-1 • 3. Trigriluzole 15 mg/kg • 4. Trigriluzole 30 mg/kg • 5. Trigriluzole 45 mg/kg • 6. anti-PD-1+Trigriluzole 15 mg/kg • 7. anti-PD-1+Trigriluzole 30 mg/kg • 8. anti-PD-1+Trigriluzole 45 mg/kg
Day 0 represents the date of intracranial implantation. Control arm 1 received no treatment. Control arm 2 received αPD-1 alone at a dose of 200 μg/animal via intraperitoneal injection on days 10, 12, 14. Control arms 3, 4 and 5 received BHV-4157 alone at doses of 15, 30 and 45 mg/kg (respectively) via intraperitoneal injection daily beginning on day 10. Control arms 6, 7 and 8 received BHV-4157 at doses of 15, 30 and 45 mg/kg (respectively) via intraperitoneal injection daily beginning on day 10 and αPD-1 at a dose of 200 μg/animal via intraperitoneal injection on days 10, 12, 14.
Animals were euthanized according to humane endpoints including central nervous system disturbances, hunched posture, lethargy, weight loss, and inability to ambulate.

advanced melanoma = conditions: cited from earlier work; for Response duration: Median in months: patients with confirmed complete or partial response; for OS: Hazard ratio / PFS: Hazard ratio: pembrolizumab compared to ipilimumab
[1] = TPS 1% (entire population), 75 mg/m^2 every 3 weeks
[2] = TPS≥50% (section head prints 'TPS'), 75 mg/m^2 every 3 weeks
[3] = TPS 1% (entire population), 2 mg/kg every 3 weeks
[4] = TPS 1% (entire population), 10 mg/kg every 3 weeks
[5] = TPS≥50% (section head prints 'TPS'), 2 mg/kg every 3 weeks
[6] = TPS≥50% (section head prints 'TPS'), 10 mg/kg every 3 weeks

## CC(=O)O[C@@]12CO[C@@H]1C[C@H](O)[C@@]1(C)C(=O)[C@H](O)C3=C(C)[C@@H](OC(=O)[C@H](O)[C@@H](NC(=O)OC(C)(C)C)c4ccccc4)C[C@@](O)([C@@H](OC(=O)c4ccccc4)[C@H]21)C3(C)C [Docetaxel, docetaxel]
Advanced NSCLC; TPS 1% (entire population), 75 mg/m^2 every 3 weeks, BICR, RECIST 1.1
  PFS: Number of patients with event: 257
Advanced NSCLC; [1]
  OS: % of patients with event: (56%)
  OS: Number of patients with event: 193
  Overall response rate: ORR %: 9%
  PFS: % of patients with event: (75%)
  PFS: Median in months: 4.0 months
  Response duration: % ongoing: 34%
  Response duration: Median in months: 6.2 months
Advanced NSCLC; TPS≥50% (section head prints 'TPS'), 75 mg/m^2 every 3 weeks, all partial responses
  Overall response rate: ORR %: 8%
Advanced NSCLC; [2]
  OS: % of patients with event: (57%)
  OS: Median in months: 8.2 months
  OS: Number of patients with event: 86
  PFS: % of patients with event: (78%)
  PFS: Median in months: 4.1 months
  PFS: Number of patients with event: 118
  Response duration: % ongoing: 33%
  Response duration: Median in months: 8.1 months

## CN(CC(=O)Nc1nc2ccc(OC(F)(F)F)cc2s1)C(=O)CNC(=O)CN [BHV-4157, 2-Amino-N-{[methyl({[6-(trifluoromethoxy)-1,3-benzothiazol-2-yl]carbamoyl}methyl)carbamoyl]methyl}acetamide]
GL261 cells; Arm 3: 15 mg/kg i.p. daily from day 10, day 0
  Percent survival of mice after tumor implantation: 100%
GL261 cells; Arm 3: 15 mg/kg i.p. daily from day 10, day 21
  Percent survival of mice after tumor implantation: 90%
GL261 cells; Arm 3: 15 mg/kg i.p. daily from day 10, day 22
  Percent survival of mice after tumor implantation: 80%
GL261 cells; Arm 3: 15 mg/kg i.p. daily from day 10, day 23
  Percent survival of mice after tumor implantation: 70%
GL261 cells; Arm 3: 15 mg/kg i.p. daily from day 10, day 24
  Percent survival of mice after tumor implantation: 50%
GL261 cells; Arm 3: 15 mg/kg i.p. daily from day 10, day 26
  Percent survival of mice after tumor implantation: 30%
GL261 cells; Arm 3: 15 mg/kg i.p. daily from day 10, day 27
  Percent survival of mice after tumor implantation: 20%
GL261 cells; Arm 3: 15 mg/kg i.p. daily from day 10, day 28
  Percent survival of mice after tumor implantation: 10%
GL261 cells; Arm 3: 15 mg/kg i.p. daily from day 10, day 36
  Percent survival of mice after tumor implantation: 0%
GL261 cells; Arm 4: 30 mg/kg i.p. daily from day 10, day 0
  Percent survival of mice after tumor implantation: 100%
GL261 cells; Arm 4: 30 mg/kg i.p. daily from day 10, day 21
  Percent survival of mice after tumor implantation: 90%
GL261 cells; Arm 4: 30 mg/kg i.p. daily from day 10, day 23
  Percent survival of mice after tumor implantation: 70%
GL261 cells; Arm 4: 30 mg/kg i.p. daily from day 10, day 24
  Percent survival of mice after tumor implantation: 50%
GL261 cells; Arm 4: 30 mg/kg i.p. daily from day 10, day 26
  Percent survival of mice after tumor implantation: 30%
GL261 cells; Arm 4: 30 mg/kg i.p. daily from day 10, day 29
  Percent survival of mice after tumor implantation: 20%
GL261 cells; Arm 4: 30 mg/kg i.p. daily from day 10, day 34
  Percent survival of mice after tumor implantation: 10%
GL261 cells; Arm 4: 30 mg/kg i.p. daily from day 10, day 60
  Percent survival of mice after tumor implantation: 10%
GL261 cells; Arm 5: 45 mg/kg i.p. daily from day 10, day 0
  Percent survival of mice after tumor implantation: 100%
GL261 cells; Arm 5: 45 mg/kg i.p. daily from day 10, day 21
  Percent survival of mice after tumor implantation: 90%
GL261 cells; Arm 5: 45 mg/kg i.p. daily from day 10, day 22
  Percent survival of mice after tumor implantation: 80%
GL261 cells; Arm 5: 45 mg/kg i.p. daily from day 10, day 23
  Percent survival of mice after tumor implantation: 70%
GL261 cells; Arm 5: 45 mg/kg i.p. daily from day 10, day 24
  Percent survival of mice after tumor implantation: 60%
GL261 cells; Arm 5: 45 mg/kg i.p. daily from day 10, day 25
  Percent survival of mice after tumor implantation: 50%
GL261 cells; Arm 5: 45 mg/kg i.p. daily from day 10, day 27
  Percent survival of mice after tumor implantation: 20%
GL261 cells; Arm 5: 45 mg/kg i.p. daily from day 10, day 28
  Percent survival of mice after tumor implantation: 10%
GL261 cells; Arm 5: 45 mg/kg i.p. daily from day 10, day 29
  Percent survival of mice after tumor implantation: 0%

## Pembrolizumab: humanized monoclonal IgG4 antibody directed against human cell surface receptor PD-1
Advanced melanoma; 10 mg/kg every 2 weeks
  Best overall response: ORR %: 34%
  Complete response %: 5%
  OS: % of patients with event: (30%)
  OS: Median in months: Not reached
  OS: Number of patients with event: 85
  PFS: % of patients with event: (56%)
  PFS: Median in months: 5.5 months
  PFS: Number of patients with event: 157
  Partial response %: 29%
  Response duration: % ongoing: 89%
  Response duration: Median in months: 8.3 months
  OS: Hazard ratio: 0.63
  PFS: Hazard ratio: 0.58
Advanced melanoma; 10 mg/kg every 3 weeks
  Best overall response: ORR %: 33%
  Complete response %: 6%
  OS: % of patients with event: (33%)
  OS: Median in months: Not reached
  OS: Number of patients with event: 92
  PFS: % of patients with event: (57%)
  PFS: Median in months: 4.1 months
  PFS: Number of patients with event: 157
  Partial response %: 27%
  Response duration: % ongoing: 97%
  Response duration: Median in months: Not reached
  OS: Hazard ratio: 0.69
  PFS: Hazard ratio: 0.58
Advanced NSCLC; TPS 1% (entire population), 2 mg/kg every 3 weeks, BICR, RECIST 1.1
  PFS: Number of patients with event: 266
Advanced NSCLC; [3]
  OS: % of patients with event: (50%)
  OS: Number of patients with event: 172
  Overall response rate: ORR %: 18%
  PFS: % of patients with event: (77%)
  PFS: Median in months: 3.9 months
  Response duration: % ongoing: 73%
  Response duration: Median in months: Not reached
  OS: Hazard ratio: 0.71
  PFS: Hazard ratio: 0.88
Advanced NSCLC; TPS 1% (entire population), 10 mg/kg every 3 weeks, BICR, RECIST 1.1
  PFS: Number of patients with event: 255
Advanced NSCLC; [4]
  OS: % of patients with event: (45%)
  OS: Number of patients with event: 156
  Overall response rate: ORR %: 18%
  PFS: % of patients with event: (74%)
  PFS: Median in months: 4.0 months
  Response duration: % ongoing: 72%
  Response duration: Median in months: Not reached
  OS: Hazard ratio: 0.61
  PFS: Hazard ratio: 0.79
Advanced NSCLC; TPS≥50% (section head prints 'TPS'), 2 mg/kg every 3 weeks, all partial responses
  Overall response rate: ORR %: 30%
Advanced NSCLC; [5]
  OS: % of patients with event: (42%)
  OS: Median in months: 14.9 months
  OS: Number of patients with event: 58
  PFS: % of patients with event: (64%)
  PFS: Median in months: 5.2 months
  PFS: Number of patients with event: 89
  Response duration: % ongoing: 76%
  Response duration: Median in months: Not reached
  OS: Hazard ratio: 0.54
  PFS: Hazard ratio: 0.58
Advanced NSCLC; TPS≥50% (section head prints 'TPS'), 10 mg/kg every 3 weeks, all partial responses
  Overall response rate: ORR %: 29%
Advanced NSCLC; [6]
  OS: % of patients with event: (40%)
  OS: Median in months: 17.3 months
  OS: Number of patients with event: 60
  PFS: % of patients with event: (64%)
  PFS: Median in months: 5.2 months
  PFS: Number of patients with event: 97
  Response duration: % ongoing: 75%
  Response duration: Median in months: Not reached
  OS: Hazard ratio: 0.50
  PFS: Hazard ratio: 0.59
